# Laboratory results: patent publication US5334606A, “Oxazolidindione substituted indole derivatives” (Merck Sharpe & Dohme Ltd., priority 1991, dated 1994)
# pIC50: −log10 of the molar value.
# Target: T1, human neurokinin-1- receptor (NK1R) (Homo sapiens, UniProt P25103)
# T1 construct: expressed in transfected cells
# Experiment: 125I-substance P binding assay, human NK1R expressed in COS or CHO cells (Substance P antagonism)
# Conditions: displacement of 125I-substance P, 4° C. or room temperature, 1 hour
# Method: SUBSTANCE P ANTAGONISM ASSAY
# A. Receptor Expression in Monkey Kidney Cell Line (COS)
# To express the cloned human neurokinin-1- receptor (NK1R) transiently in COS, the cDNA for the human NK1R was cloned into the expression vector pCDM9 which was derived from pCDM8 (INVITROGEN) by inserting the ampicillin resistance gene (nucleotide 1973 to 2964 from BLUESCRIPT SK+ (trademark, STRATAGENE, La Jolla, Calif., USA)) into the Sac II site. Transfection of 20 μg of the plasmid DNA into 10 million COS cells was achieved by electropotation in 800 μl of transfection buffer (135 mM NaCl, 1.2 mM CaCl2, 1.2 mM MgCl2, 2.4 mM K2 HPO4, 0.6 mM KH2 PO4, 10 mM glucose, 10 mM N-2-hydroxyethyl-piperazine-N'-2-ethane sulphonic acid (HEPES) pH 7.4) at 260 V and 950 μF using the IBI GENEZAPPER (trademark IBI, New Haven, Conn., USA). The cells were incubated in 10% fetal calf serum, 2 mM glutamine, 100U/ml penicillin-streptomycin, and 90% DMEM media (GIBCO, Grand Island, N.Y., USA) in 5% CO2 at 37° C. for three days before the binding assay.
# B. Stable Expression in Chinese Hamster Ovarian Cell Line (CHO)
# To establish a stable cell line expressing cloned human NK1R, the cDNA was subcloned into the vector pRcCMV (INVITROGEN). Transfection of 20 μg of the plasmid DNA into CHO cells was achieved by electroporation in 800 μl of transfection buffer supplemented with 0.625 mg/ml Herring sperm DNA at 300 V and 950 μF using the IBI GENEZAPPER (IBI). The transfected cells were incubated in CHO media [10% fetal calf serum, 100 U/ml penicillin-streptomycin, 2 mM glutamine, 1/500 hypoxanthinethymidine (ATCC), 90% IMDM media (JRH BIOSCIENCES, Lenexa, Kans., USA), 0.7 mg/ml G418 (GIBCO)] in 5% CO2 at 37° C. until colonies were visible. Each colony was separated and propagated. The cell clone with the highest number of human NK1R was selected.
# C. Assay Protocol using COS or CHO
# The binding assay of human NK1R expressed in either COS or CHO cells is based on the use of ^125 I-substance P (^125 I-SP, from DU PONT, Boston, Mass.) as a radioactively labeled ligand which competes with unlabeled substance P or any other ligand for binding to the human NK1R. Monolayer cell cultures of COS or CHO were dissociated by the non-enzymatic solution (SPECIALTY MEDIA, Lavellette, N.J.) and resuspended in appropriate volume of the binding buffer (50 mM Tris pH 7.5, 5 mM MnCl2, 150 mM NaCl, 0.04 mg/ml bacitracin, 0.004 mg/ml leupeptin, 0.2 mg/ml BSA, 0.01 mM phosphoramidon) such that 200 μl of the cell suspension would give rise to about 10,000 cpm of specific ^125 I-SP binding (approximately 50,000 to 200,000 cells). In the binding assay, 200 μl of cells were added to a tube containing 20 μl of 1.5 to 2.5 nM of ^125 I-SP and 20 μl of unlabeled substance P or any other test compound. The tubes were incubated at 4° C. or at room temperature for 1 hour with gentle shaking. The bound radioactivity was separated from unbound radioactivity by GF/C filter (BRANDEL, Gaithersburg, MD) which was pre-wetted with 0.1% polyethylenimine. The filter was washed with 3 ml of wash buffer (50 mM Tris pH 7.5, 5 mM MnCl2, 150 mM NaCl) three times and its radioactivity was determined by gamma counter.
# T1 sequence (P25103 whole entry): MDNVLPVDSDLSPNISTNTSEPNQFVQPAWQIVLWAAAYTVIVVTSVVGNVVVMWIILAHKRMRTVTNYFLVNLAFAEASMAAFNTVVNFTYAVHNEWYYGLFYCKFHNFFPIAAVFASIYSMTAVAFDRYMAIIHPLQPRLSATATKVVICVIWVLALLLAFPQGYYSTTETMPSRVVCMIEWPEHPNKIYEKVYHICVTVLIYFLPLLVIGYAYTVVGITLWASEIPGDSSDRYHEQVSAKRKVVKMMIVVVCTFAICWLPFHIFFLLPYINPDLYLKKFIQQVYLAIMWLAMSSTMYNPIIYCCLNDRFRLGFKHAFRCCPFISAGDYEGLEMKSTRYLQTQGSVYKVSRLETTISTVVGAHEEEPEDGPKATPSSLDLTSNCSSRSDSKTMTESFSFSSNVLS
row,Compound,pIC50
1,"1-Phenylcarboxamide-3-(3,5-bistrifluoromethylbenzyl)-5-(indol-3-ylmethylene)imidazolidine-2,4-dione [Example 13]",6.39
2,O=C1OC(Cc2c[nH]c3ccccc23)C(=O)N1Cc1cc(C(F)(F)F)cc(C(F)(F)F)c1 (stereo not drawn) [Example 1],7.68
3,O=C1CC(Cc2c[nH]c3ccccc23)C(=O)N1Cc1cc(C(F)(F)F)cc(C(F)(F)F)c1 (stereo not drawn) [Example 3],6.60
4,CC1(Cc2c[nH]c3ccccc23)OC(=O)N(Cc2cc(C(F)(F)F)cc(C(F)(F)F)c2)C1=O (stereo not drawn) [Example 4b],6.85
5,C=CCC1(Cc2c[nH]c3ccccc23)OC(=O)N(Cc2cc(C(F)(F)F)cc(C(F)(F)F)c2)C1=O (stereo not drawn) [Example 6],7.30
6,O=C1OC(Cc2c[nH]c3ccccc23)C(=O)N1Cc1cc(Cl)cc(Cl)c1 (stereo not drawn) [Example 7],6.70
7,"CC1(Cc2ccc3ccccc3c2)OC(=O)N(Cc2cc(C(F)(F)F)cc(C(F)(F)F)c2)C1=O (stereo not drawn) [Example 9, 5-Methyl-5-(2-naphthylmethyl)-3-(3,5-bistrifluoromethylbenzyl)oxazolidin-2,4-dione]",< 6.00
8,CN1C(=O)N(Cc2cc(C(F)(F)F)cc(C(F)(F)F)c2)C(=O)C1Cc1c[nH]c2ccccc12 (stereo not drawn) [Example 12],6.80

# Other lines, results leading:
row,pIC50,Compound
1,6.40,O=C1NC(Cc2c[nH]c3ccccc23)C(=O)N1Cc1cc(C(F)(F)F)cc(C(F)(F)F)c1 (stereo not drawn) [Example 2]
2,7.85,"Cn1cc(CC2(C)OC(=O)N(Cc3cc(C(F)(F)F)cc(C(F)(F)F)c3)C2=O)c2ccccc21 (stereo not drawn) [Example 4a, 3-(3,5-Bistrifluoromethylbenzyl)-5-methyl-5-(1-methylindol-3-ylmethylene)oxazolidin-2,4-dione]"
3,6.52,Cn1cc(CC2OC(=O)N(Cc3cc(C(F)(F)F)cc(C(F)(F)F)c3)C2=O)c2ccccc21 (stereo not drawn) [Example 4c]
4,6.52,COc1ccc2[nH]cc(CC3OC(=O)N(Cc4cc(C(F)(F)F)cc(C(F)(F)F)c4)C3=O)c2c1 (stereo not drawn) [Example 5]
5,7.77,O=C1O[C@@H](Cc2c[nH]c3ccccc23)C(=O)N1Cc1cc(C(F)(F)F)cc(C(F)(F)F)c1 [Example 8]
6,7.00,"CC1(Cc2ccc(Cl)c(Cl)c2)OC(=O)N(Cc2cc(C(F)(F)F)cc(C(F)(F)F)c2)C1=O (stereo not drawn) [Example 10, 5-Methyl-5(3,4-dichlorobenzyl)-3-(3,5-bistrifluoromethylbenzyl)oxazolidin-2,4-dione]"
7,6.20,O=C1C(Cc2c[nH]c3ccccc23)N(Cc2ccccc2)C(=O)N1Cc1cc(C(F)(F)F)cc(C(F)(F)F)c1 (stereo not drawn) [Example 11]
8,7.07,CNC(=O)N1C(=O)N(Cc2cc(C(F)(F)F)cc(C(F)(F)F)c2)C(=O)C1Cc1c[nH]c2ccccc12 (stereo not drawn) [Example 14]

# Test system: not given
# Experiment: not given
# Conditions: literature, J. Med. Chem., 33(5), 1418-23 (1990); cited from earlier work
row,Compound,antihyperglycaemic activity
1,O=C1NC(=O)C(Cc2ccc3ccccc3c2)S1 (stereo not drawn),antihyperglycaemic activity

# Test system: not given
# Experiment: not given
# Conditions: literature, J. Med. Chem., 24(4), 465-8 (1981); cited from earlier work
row,Compound,anticonvulsant activity
1,CN1C(=O)NC(Cc2cccc(Br)c2)C1=O (stereo not drawn),weak anticonvulsant activity
